According to US10655105B2, “Method for proliferation of pancreatic progenitor cells” (Takeda Pharmaceutical Company Limited, priority 2014, dated 2020):

Columns and labels:
[1] = test system: 297L1 cell-derived pancreatic progenitor cells (passage number: 7); assay: Differentiation induction of insulin-producing cells from proliferated pancreatic progenitor cells, NKX6.1/INSULIN immunofluorescence staining; format: cell-based, human; settings: cultured 9 days in IMEM-option Zn++ medium with 1% B-27; FIG. 9
Description: Study was made on whether the proliferated and repetitively passaged pancreatic progenitor cells would have the ability to differentiate into INSULIN-producing cells. The cells used were 297L1 cell-derived pancreatic progenitor cells (passage number: 7). The pancreatic progenitor cells brought to a single cell state using Accutase were inoculated at 6×10^4 cells/well to a 96-well plate coated with Matrigel. The culture solution used was IMEM-option Zn^++ medium (containing 1% B-27®) supplemented with XAV939 (1 μM), Y27632 (10 μM), and bFGF (50 ng/ml). The cells were cultured for 2 days to render the cell density confluent. Then, the cells were washed with IMEM-option Zn^++ medium and then cultured for 9 days using IMEM-option Zn^++ medium (containing 1% B-27®) supplemented with ALKS inhibitor II. […] 4% PFA was added to the cells thus cultured, and the cells were fixed at room temperature for 30 minutes. The cells were further reacted with an anti-NKX6.1 antibody and an anti-INSULIN antibody (DAKO, A0564) as primary antibodies and further with an Alexa 488-labeled secondary antibody or an Alexa 568-labeled secondary antibody as a secondary antibody, sequentially, and then observed under a fluorescence microscope.

[2] = test system: 297L1 cell-derived pancreatic progenitor cells (passage number: 7); settings: Stem Cell Research 2012, 8, 274-284; cited from earlier work
[3] = test system: PDX1-positive cells differentiation-induced from human iPS cell line 253G1; assay: Induction of pancreatic progenitor cells from PDX1-positive cells (253G1 iPS-derived), anti-PDX1/anti-NKX6.1 immunofluorescence staining; format: cell-based; settings: cultured 7 days, IMEM-option Zn++ medium with 1% B-27; XAV939 1 μM and/or bFGF 100 ng/ml; FIG. 1
Description: The PDX1-positive cells differentiation-induced on a Matrigel-coated dish according to Reference Example 1 were washed with IMEM-option Zn^++ medium and then further cultured for 7 days in IMEM-option Zn^++ medium (containing 1% B-27®) supplemented with XAV939 (1 μM) and/or bFGF (100 ng/ml) (PeproTech, Inc.).
In order to examine the expression of PDX1 and NKX6.1 proteins in the cells thus cultured, immunofluorescence staining was carried out using an anti-PDX1 antibody and an anti-NKX6.1 antibody. […] Then, the cells were reacted with an anti-PDX1 antibody (AF2419, R&D Systems, Inc.) and an anti-NKX6.1 antibody (55F55A12-c, Developmental Studies Hybridoma Bank) as primary antibodies and further with an Alexa 488-labeled secondary antibody or an Alexa 568-labeled secondary antibody (both from Life Technologies Corp.) as a secondary antibody, sequentially, and then observed under a fluorescence microscope.
The PDX1-positive cells differentiation-induced on a Matrigel-coated dish according to Reference Example 1 were washed with IMEM-option Zn^++ medium. […] The cells thus cultured were subjected to the immunofluorescence staining described in Example 1 and observed under a fluorescence microscope.

| Compound | appearance of INSULIN-positive cells [1] | induction of INSULIN-positive cells [2] | cells expressing PDX1 and NKX6.1 (immunofluorescence staining) [3] |
| --- | --- | --- | --- |
| Cc1cccc(-c2[nH]ncc2-c2ccc3ncccc3n2)n1 [ALKS inhibitor II] | INSULIN-positive cells appeared | known to induce INSULIN-positive cells |  |
| O=c1[nH]c(-c2ccc(C(F)(F)F)cc2)nc2c1CSCC2 [XAV939, 2-(4-trifluoromethylphenyl)-7,8-dihydro-5H-thiopyrano[4,3-d]pyrimidin-4(3H)-one] |  |  | cells coexpressing PDX1 and NKX6.1 were few in number |
| bFGF: FGF signal transduction activator, bFGF (FGF2) |  |  | cells coexpressing PDX1 and NKX6.1 were few in number |
